Consider 34 compounds from ChEMBL document CHEMBL5584238, “Psammaplin A analogues with modified disulfide bond targeting histone deacetylases: Synthesis and biological evaluation” (Eur J Med Chem, 2024).

Molecules are shown by their SMILES.

The IC50 is the midpoint of a concentration-inhibition curve. Read a high IC50 as weaker potency in that assay.

Common to all, as to assay type: functional, cell-based
In one assay the test system is EBC-1. Briefly: Antiproliferative activity against human EBC-1 cells incubated for 48 hrs by MTT assay. Conditions: EBC-1, 48 h.
The next assay deals with NCI-H1581. Briefly: Antiproliferative activity against human NCI-H1581 cells incubated for 48 hrs by MTT assay. Conditions: NCI-H1581, 48 h. (Formazan colour is commonly taken as a measure of viable cells.)
The test system of a further assay is HCT-116. Briefly: Antiproliferative activity against human HCT-116 cells incubated for 48 hrs by MTT assay. The settings on record: HCT-116, 48 h.

For the compound `O=C(NCCSSCCNC(=O)/C(Cc1cccs1)=N/O)/C(Cc1cccs1)=N/O`, the IC50 with EBC-1 is above 10 µM; in the assay with NCI-H1581, 6.16 µM; with HCT-116, 4.94 µM.

Turning to `O=C(NC1CCS[Se]C1)/C(Cc1ccc(O)cc1)=N/O` (stereo not given), the results for the half-inhibitory concentration (IC50) in the assay with EBC-1, in the assay on NCI-H1581 and in the assay on HCT-116 were above 10 µM, 2.24 µM and above 10 µM, respectively.

As for `O=C(NC1CCS[Se]C1)/C(Cc1ccc(Cl)s1)=N/O` (stereo not given), the concentration for half-maximal inhibition (IC50) in the assay with EBC-1 is above 10 µM; in the assay with NCI-H1581, 2.46 µM; in the assay with HCT-116, above 10 µM.

Take `O=C(NC1CC[Se]SC1)/C(Cc1ccc(O)cc1)=N/O` (stereo not given): the IC50 in the assay on EBC-1 is above 10 µM; in the assay on NCI-H1581 it was 1.28 µM; in the assay with HCT-116, above 10 µM.

Take `O=C(NC1CC[Se]SC1)/C(Cc1ccc(Cl)s1)=N/O` (stereo not given): the concentration for half-maximal inhibition (IC50) with EBC-1 is above 10 µM; in the assay on NCI-H1581, 1.1 µM; with HCT-116, above 10 µM.

Regarding `O=C(NC1CS[Se]C1)/C(Cc1ccc(O)cc1)=N/O` (stereo not given), the half-maximal inhibitory concentration (IC50) came out at 3.47 µM with EBC-1, 0.84 µM with NCI-H1581 and 3.3 µM in the assay with HCT-116.

`O=C(NCCSSCCNC(=O)/C(Cc1ccco1)=N/O)/C(Cc1ccco1)=N/O`: the IC50 with EBC-1, in the assay on NCI-H1581 and in the assay on HCT-116 was above 10 µM throughout.

Consider `O=C(NC1CSSC1)/C(Cc1ccc(O)c(Br)c1)=N/O`, for which the concentration for half-maximal inhibition (IC50) in the assay on EBC-1 is above 10 µM; with NCI-H1581, above 10 µM; in the assay on HCT-116, 6.02 µM.

Consider `O=C(NC1CC[Se][Se]C1)/C(Cc1ccc(O)c(Br)c1)=N/O` (stereo not given), for which the IC50 in the assay with EBC-1, in the assay on NCI-H1581 and in the assay on HCT-116 was above 10 µM each time.

`O=C(NC1CC[Se]SC1)/C(Cc1ccc(Br)s1)=N/O` (stereo not given): the results for the IC50 with EBC-1, in the assay with NCI-H1581 and in the assay on HCT-116 were above 10 µM, 1.44 µM and above 10 µM, respectively.

For `O=C(NC1C[Se][Se]C1)/C(Cc1ccc(O)c(Br)c1)=N/O`, the IC50 in the assay on EBC-1, in the assay with NCI-H1581 and in the assay on HCT-116 was above 10 µM in each case.

Regarding `Cc1ccc(C/C(=N\O)C(=O)NCCSSCCNC(=O)/C(Cc2ccc(C)o2)=N/O)o1`, the figures for the IC50 in the assay on EBC-1, with NCI-H1581 and with HCT-116 were above 10 µM, above 10 µM and 6.9 µM, respectively.

Take `O=C(NCCSSCCNC(=O)/C(Cc1ccc(Br)s1)=N/O)/C(Cc1ccc(Br)s1)=N/O`: the IC50 in the assay with EBC-1 is above 10 µM; in the assay with NCI-H1581, 4.17 µM; in the assay on HCT-116, 2.22 µM.

As for `O=C(NCC[Se][Se]CCNC(=O)/C(Cc1ccc(Cl)s1)=N/O)/C(Cc1ccc(Cl)s1)=N/O`, the IC50 was 1.36 µM in the assay on EBC-1, 0.28 µM in the assay on NCI-H1581 and 0.5 µM in the assay with HCT-116.

On to `CC(C)(CNC(=O)/C(Cc1ccc(O)c(Br)c1)=N/O)SSCCNC(=O)/C(Cc1ccc(O)c(Br)c1)=N/O`, for which the IC50 in the assay with EBC-1 was above 10 µM; in the assay with NCI-H1581, 3.75 µM; in the assay on HCT-116, 3.52 µM.

Take `O=C(NCCSSCCNC(=O)/C(Cc1ccc(Cl)s1)=N/O)/C(Cc1ccc(Cl)s1)=N/O`: the IC50 was above 10 µM with EBC-1, 4.02 µM in the assay on NCI-H1581 and 5.48 µM in the assay with HCT-116.

As for `O=C(NC1CC[Se][Se]C1)/C(Cc1ccc(O)cc1)=N/O` (stereo not given), the IC50 with EBC-1, in the assay with NCI-H1581 and with HCT-116 was above 10 µM in each case.

Take `O=C(NC1C[Se][Se]C1)/C(Cc1ccc(O)cc1)=N/O`: the IC50 with EBC-1, in the assay with NCI-H1581 and in the assay on HCT-116 was above 10 µM in each case.

For the compound `O=C(NC1CCSSC1)/C(Cc1cccc(F)c1)=N/O` (stereo not given), the IC50 with EBC-1, with NCI-H1581 and in the assay on HCT-116 was above 10 µM throughout.

In the case of `N#Cc1ccc(COc2ccc(C/C(=N\O)C(=O)NC3CSSC3)cc2)cc1`, the IC50 in the assay with EBC-1, with NCI-H1581 and in the assay with HCT-116 was above 10 µM throughout.

With `O=C(NC1CCS[Se]C1)/C(Cc1ccc(Br)s1)=N/O` (stereo not given), the half-inhibitory concentration (IC50) in the assay on EBC-1 was above 10 µM; with NCI-H1581, 3.6 µM; in the assay with HCT-116 it was above 10 µM.

As to `O=C(NC1CC[Se][Se]C1)/C(Cc1cccc(F)c1)=N/O` (stereo not given), the IC50 in the assay with EBC-1, in the assay on NCI-H1581 and in the assay on HCT-116 was above 10 µM throughout.

In the case of `O=C(NCCSSCCNC(=O)/C(Cc1ccc[nH]1)=N/O)/C(Cc1ccc[nH]1)=N/O`, the half-maximal inhibitory concentration (IC50) in the assay on EBC-1, with NCI-H1581 and in the assay with HCT-116 was above 10 µM each time.

`O=C(NCCSSCCNC(=O)/C(Cc1ccsc1)=N/O)/C(Cc1ccsc1)=N/O`: the IC50 was above 10 µM with EBC-1, above 10 µM with NCI-H1581 and 8.97 µM in the assay on HCT-116.

With `O=C(NCC[Se][Se]CCNC(=O)/C(Cc1ccco1)=N/O)/C(Cc1ccco1)=N/O`, the results for the IC50 in the assay with EBC-1, in the assay on NCI-H1581 and in the assay on HCT-116 were 0.45 µM, 0.3 µM and 0.41 µM, respectively.

With `O=C(NCCSSCCNC(=O)/C(Cc1ccc(O)cc1)=N/O)/C(Cc1ccc(O)cc1)=N/O`, in the assay with HCT-116, the 50% inhibitory concentration (IC50) was 6.57 µM.

Regarding `O=C(NCC[Se][Se]CCNC(=O)/C(Cc1cccs1)=N/O)/C(Cc1cccs1)=N/O`, the figures for the 50% inhibitory concentration (IC50) in the assay on EBC-1, in the assay on NCI-H1581 and in the assay with HCT-116 were 1.13 µM, 0.16 µM and 0.19 µM, respectively.

For `O=C(NC1CCSSC1)/C(Cc1ccc(O)cc1)=N/O` (stereo not given), the half-inhibitory concentration (IC50) with EBC-1, in the assay on NCI-H1581 and in the assay on HCT-116 was above 10 µM each time.

As to `O=C(NC1CSSC1)/C(Cc1ccc(O)cc1)=N/O`, the half-maximal inhibitory concentration (IC50) was above 10 µM with EBC-1, above 10 µM in the assay with NCI-H1581 and 9.67 µM in the assay on HCT-116.

Turning to `CC(C)(CNC(=O)/C(Cc1ccc(O)c(Br)c1)=N/O)SSC(C)(C)CNC(=O)/C(Cc1ccc(O)c(Br)c1)=N/O`, the half-maximal inhibitory concentration (IC50) in the assay on EBC-1 was above 10 µM; in the assay on NCI-H1581, above 10 µM; in the assay with HCT-116, 5.53 µM.

Take `O=C(NC1CSSC1)/C(Cc1cccc(F)c1)=N/O`: the IC50 with EBC-1, in the assay with NCI-H1581 and in the assay with HCT-116 was above 10 µM in each case.

As for `O=C(NC1CS[Se]C1)/C(Cc1ccc(O)c(Br)c1)=N/O` (stereo not given), the IC50 in the assay on EBC-1 was 3.31 µM; in the assay on NCI-H1581, 0.93 µM; in the assay with HCT-116, 1.53 µM.

In the case of `O=C(NCCSSCCNC(=O)/C(Cc1ccc(Br)o1)=N/O)/C(Cc1ccc(Br)o1)=N/O`, the IC50 in the assay with EBC-1 was above 10 µM; in the assay with NCI-H1581, above 10 µM; in the assay with HCT-116, 1.74 µM.

Take `O=C(NC1CCSSC1)/C(Cc1ccc(O)c(Br)c1)=N/O` (stereo not given): the IC50 in the assay on EBC-1, in the assay with NCI-H1581 and in the assay with HCT-116 was above 10 µM in each case.
